Measured values published in patent US20220273571A1, “COMPOSITIONS OF PROBIOTICS AND BIOMASS AND METHODS FOR PROMOTING HEALTH IN A SUBJECT” (Commonwealth Scientific and Industrial Research Organisation, priority 2019, published 2022).

Assays:
[1] = system: Enterobacteriaceae (Trabulsiella); assay: In vitro colonic fermentation, 16S rRNA bacterial population analysis; format: cell-based; details: 24 h fermented samples versus Time 0 samples
[2] = system: Veillonellaceae (Dialister); assay: as above; format: cell-based; details: 24 h fermented samples versus Time 0 samples
[3] = system: Erysipelotrichaceae; assay: as above; format: cell-based; details: 24 h fermented samples versus Time 0 samples
[4] = system: Porphyromonadaceae (Parabacteroides distasonis); assay: as above; format: cell-based; details: 24 h fermented samples versus Time 0 samples
[5] = system: Ruminococcaceae (Ruminococcus); assay: as above; format: cell-based; details: 24 h fermented samples versus Time 0 samples
[6] = system: Coriobacteriaceae (Collinsella aerofaciens); assay: as above; format: cell-based; details: 24 h fermented samples versus Time 0 samples
[7] = system: Lachnospiraceae (Blautia); assay: as above; format: cell-based; details: 24 h fermented samples versus Time 0 samples
[8] = system: Clostridiaceae (Clostridium perfringens); format: cell-based; details: 24 h fermented samples versus Time 0 samples
[9] = system: Ruminococcaceae; assay: In vitro colonic fermentation, 16S rRNA bacterial population analysis; format: cell-based; details: 24 h fermented samples versus Time 0 samples
[10] = system: Veillonellaceae (Veillonella dispar); assay: as above; format: cell-based; details: 24 h fermented samples versus Time 0 samples
[11] = system: Lachnospiraceae (Coprococcus); assay: as above; format: cell-based; details: 24 h fermented samples versus Time 0 samples
[12] = system: Bacteroidaceae (Bacteroides); assay: as above; format: cell-based; details: 24 h fermented samples versus Time 0 samples
[13] = system: Ruminococcaceae (Oscillospira); assay: as above; format: cell-based; details: 24 h fermented samples versus Time 0 samples
[14] = system: Lachnospiraceae (Dorea formicigenerans); assay: as above; format: cell-based; details: 24 h fermented samples versus Time 0 samples
[15] = system: Lachnospiraceae (Roseburia faecis); assay: as above; format: cell-based; details: 24 h fermented samples versus Time 0 samples
[16] = system: faecal slurries (gut microbiota); assay: In vitro colonic fermentation, SCFA analysis by gas chromatography; details: 24 hrs fermentation, result in words (FIG. 2, FIG. 3)
[17] = system: Lactobacillaceae (Lactobacillus reuteri); assay: In vitro colonic fermentation, 16S rRNA bacterial population analysis; format: cell-based; details: 24 h fermented samples versus Time 0 samples
[18] = system: Ruminococcaceae (Faecalibacterium prausnitzii); assay: as above; format: cell-based; details: 24 h fermented samples versus Time 0 samples
[19] = system: faecal slurries (gut microbiota); assay: In vitro colonic batch fermentation, pH value; details: batch fermentation with faecal slurry, 37° C., starting pH adjusted
[20] = system: Bacillaceae (Bacillus coagulans); assay: In vitro colonic fermentation, 16S rRNA bacterial population analysis; format: cell-based; details: 24 h fermented samples versus Time 0 samples
[21] = system: Lachnospiraceae (Lachnospira); assay: as above; format: cell-based; details: 24 h fermented samples versus Time 0 samples
[22] = pH of formulations in fermentation media before pH adjustment; format: physicochemical; details: 150 mg dried formulation in 10 mL fermentation media, before standardizing the starting pH at 6.8
[23] = system: Paraprevotellaceae (Paraprevotella); assay: In vitro colonic fermentation, 16S rRNA bacterial population analysis; format: cell-based; details: 24 h fermented samples versus Time 0 samples

## O=C(O[C@@H]1Cc2c(O)cc(O)cc2O[C@@H]1c1cc(O)c(O)c(O)c1)c1cc(O)c(O)c(O)c1 [EGCG, Epigallocatechin gallate]
[1]
  Log2 fold change of percentage abundance, Enterobacteriaceae (Trabulsiella): 0.58 Log2 fold change
[2]
  Log2 fold change of percentage abundance, Veillonellaceae (Dialister): −0.32 Log2 fold change
[3]
  Log2 fold change of percentage abundance, Erysipelotrichaceae: −1.30 Log2 fold change
[4]
  Log2 fold change of percentage abundance, Porphyromonadaceae (Parabacteroides distasonis): 0.27 Log2 fold change
[5]
  Log2 fold change of percentage abundance, Ruminococcaceae (Ruminococcus): −1.35 Log2 fold change
[6]
  Log2 fold change of percentage abundance, Coriobacteriaceae (Collinsella aerofaciens): −0.81 Log2 fold change
[7]
  Log2 fold change of percentage abundance, Lachnospiraceae (Blautia): −1.39 Log2 fold change
[8]
  Log2 fold change of percentage abundance, Clostridiaceae (Clostridium perfringens): −0.79 Log2 fold change
[9]
  Log2 fold change of percentage abundance, Ruminococcaceae: −0.57 Log2 fold change
[10]
  Log2 fold change of percentage abundance, Veillonellaceae (Veillonella dispar): −0.58 Log2 fold change
[11]
  Log2 fold change of percentage abundance, Lachnospiraceae (Coprococcus): −0.22 Log2 fold change
[12]
  Log2 fold change of percentage abundance, Bacteroidaceae (Bacteroides): −0.13 Log2 fold change
[13]
  Log2 fold change of percentage abundance, Ruminococcaceae (Oscillospira): −0.31 Log2 fold change
[14]
  Log2 fold change of percentage abundance, Lachnospiraceae (Dorea formicigenerans): −1.47 Log2 fold change
[15]
  Log2 fold change of percentage abundance, Lachnospiraceae (Roseburia faecis): −0.11 Log2 fold change
[16]
  total and individual SCFA production during fermentation: significantly inhibited
[17]
  Log2 fold change of percentage abundance, Lactobacillaceae (Lactobacillus reuteri): −0.37 Log2 fold change
[18]
  Log2 fold change of percentage abundance, Ruminococcaceae (Faecalibacterium prausnitzii): −0.81 Log2 fold change
[19]
  pH at 24 hrs: 6.46 ± 0.05
[20]
  Log2 fold change of percentage abundance, Bacillaceae (Bacillus coagulans): −1.94 Log2 fold change
[21]
  Log2 fold change of percentage abundance, Lachnospiraceae (Lachnospira): −0.28 Log2 fold change
[22]
  pH: 7.16
[23]
  Log2 fold change of percentage abundance, Paraprevotellaceae (Paraprevotella): 0.46 Log2 fold change
